# US9199959B2, “HIV replication inhibitor” (Shionogi & Co., Ltd., priority 2011, dated 2015)
# What was measured:
# [1] = Metabolism stability test, human liver microsomes; type: in vitro ADME; conditions: 30 minutes, 37° C., amount at 0 minute = 100%
# Experimental: Commercially available pooled human hepatic microsomes and a test compound were reacted for a constant time, then a remaining rate was calculated by comparing a reacted sample and an unreacted sample, thereby a degree of metabolism of the test compound in liver was assessed. A reaction was performed (oxidative reaction) at 37° C. for 0 minute or 30 minutes in the presence of 1 mmol/L NADPH in 0.2 mL of a buffer (50 mmol/L Tris-HCl, pH 7.4, 150 mmol/L potassium chloride, 10 mmol/L magnesium chloride) containing 0.5 mg protein/mL of human liver microsomes. After the reaction, 50 μl, of the reaction solution was added to 100 μL of a methanol/acetonitrile=1/1 (v/v), mixed and centrifuged at 3000 rpm for 15 minutes. The test compound in the supernatant was quantified by LC/MS/MS, and a remaining amount of the test compound after the reaction was calculated, letting a compound amount at 0 minute reaction time to be 100%. Hydrolysis reaction was performed in the absence of NADPH and glucuronidation reaction was in the presence of 5 mM UDP-glucuronic acid in place of NADPH, followed by similar operations.
# [2] = target: T1, human ether-a-go-go related gene (hERG) channel (Homo sapiens, UniProt Q12809); assay: hERG test, whole cell patch clamp; type: cell-based; conditions: HEK293 cells expressing hERG channel
# T1 construct: expressed in transfected cells; host or cells: HEK293
# From the text: For the purpose of assessing risk of an electrocardiogram QT interval prolongation, effects on delayed rectifier K+ current (IKr), which plays an important role in the ventricular repolarization process of the compound of the present invention, was studied using HEK293 cells expressing human ether-a-go-go related gene (hERG) channel.
# After a cell was retained at a membrane potential of −80 mV by whole cell patch clamp method using an automated patch clamp system (PatchXpress 7000A, Axon Instruments Inc.), IKr induced by depolarization pulse stimulation at +40 mV for 2 seconds and, further, repolarization pulse stimulation at −50 mV for 2 seconds was recorded. […] From the recording IKr, an absolute value of the tail peak current was measured based on the current value at the resting membrane potential using an analysis software (DataXpress ver. 1, Molecular Devices Corporation). Further, the inhibition relative to the tail peak current before application of the test substance was calculated, and compared with the vehicle-applied group (0.1% dimethyl sulfoxide solution) to assess influence of the test substance on IKr.
# [3] = system: Salmonella typhimurium TA98 strain, TA100 strain; type: cell-based; conditions: Salmonella typhimurium TA98, TA100, non-metabolism and metabolism activating condition
# Experimental: The mutagenicity of the compound of the present invention was assayed.
# 20 μL of freezing-stored rat typhoid bacillus (Salmonella typhimurium TA98 strain, TA100 strain) was inoculated on 10 mL of a liquid nutrient medium (2.5% Oxoid nutrient broth No. 2), and this was cultured before shaking at 37° C. for 10 hours. 9 mL of a bacterial solution of the TA98 strain was centrifuged (2000×g, 10 minutes) to remove a culturing solution. The bacteria was suspended in F buffer (K2HPO4: 3.5 g/L, KH2PO4: 1 g/L, (NH4)2SO4: 1 g/L, trisodium citrate dehydrate: 0.25 g/L, MgSO4.7H2O: 0.1 g/L), and the suspension was added to 110 mL of an Exposure medium (Micro F buffer containing Biotin: 8 μg/mL, histidine: 0.2 μg/mL, glucose: 8 mg/mL). The TA100 strain was added to 120 mL of the Exposure medium per 3.16 mL of the bacterial solution to prepare a test bacterial solution. […] of a test substance DMSO solution (several stage dilution from maximum dose 50 mg/mL at 2- to 3-fold ratio), DMSO as a negative control, 50 μg/mL of 4-nitroquinoline-1-oxide DMSO solution for the TA98 strain, 0.25 μg/mL of 2-(2-furyl)-3-(5-nitro-2-furyl)acrylamide DMSO solution for the TA100 strain each under the non-metabolism activating condition, 40 μg/mL of 2-aminoanthracene DMSO solution for the TA98 strain, 20 μg/mL of 2-aminoanthracene DMSO solution for the TA100 strain each under the metabolism activating condition all as a positive control, and 588 μL of the test bacterial solution (a mixed solution of 498 μL of the test bacterial solution and 90 μL of S9 mix under the metabolism activating condition) were mixed, and this was shaking-cultured at 37° C. for 90 minutes. […] Since a well containing a bacterium which has obtained the proliferation ability by mutation of an amino acid (histidine) synthesizing enzyme gene turns from purple to yellow due to a pH change, the bacterium proliferation well which has turned to yellow in 48 wells per dose is counted, and was assessed by comparing with a negative control group. […]
# T1 sequence (Q12809 whole entry): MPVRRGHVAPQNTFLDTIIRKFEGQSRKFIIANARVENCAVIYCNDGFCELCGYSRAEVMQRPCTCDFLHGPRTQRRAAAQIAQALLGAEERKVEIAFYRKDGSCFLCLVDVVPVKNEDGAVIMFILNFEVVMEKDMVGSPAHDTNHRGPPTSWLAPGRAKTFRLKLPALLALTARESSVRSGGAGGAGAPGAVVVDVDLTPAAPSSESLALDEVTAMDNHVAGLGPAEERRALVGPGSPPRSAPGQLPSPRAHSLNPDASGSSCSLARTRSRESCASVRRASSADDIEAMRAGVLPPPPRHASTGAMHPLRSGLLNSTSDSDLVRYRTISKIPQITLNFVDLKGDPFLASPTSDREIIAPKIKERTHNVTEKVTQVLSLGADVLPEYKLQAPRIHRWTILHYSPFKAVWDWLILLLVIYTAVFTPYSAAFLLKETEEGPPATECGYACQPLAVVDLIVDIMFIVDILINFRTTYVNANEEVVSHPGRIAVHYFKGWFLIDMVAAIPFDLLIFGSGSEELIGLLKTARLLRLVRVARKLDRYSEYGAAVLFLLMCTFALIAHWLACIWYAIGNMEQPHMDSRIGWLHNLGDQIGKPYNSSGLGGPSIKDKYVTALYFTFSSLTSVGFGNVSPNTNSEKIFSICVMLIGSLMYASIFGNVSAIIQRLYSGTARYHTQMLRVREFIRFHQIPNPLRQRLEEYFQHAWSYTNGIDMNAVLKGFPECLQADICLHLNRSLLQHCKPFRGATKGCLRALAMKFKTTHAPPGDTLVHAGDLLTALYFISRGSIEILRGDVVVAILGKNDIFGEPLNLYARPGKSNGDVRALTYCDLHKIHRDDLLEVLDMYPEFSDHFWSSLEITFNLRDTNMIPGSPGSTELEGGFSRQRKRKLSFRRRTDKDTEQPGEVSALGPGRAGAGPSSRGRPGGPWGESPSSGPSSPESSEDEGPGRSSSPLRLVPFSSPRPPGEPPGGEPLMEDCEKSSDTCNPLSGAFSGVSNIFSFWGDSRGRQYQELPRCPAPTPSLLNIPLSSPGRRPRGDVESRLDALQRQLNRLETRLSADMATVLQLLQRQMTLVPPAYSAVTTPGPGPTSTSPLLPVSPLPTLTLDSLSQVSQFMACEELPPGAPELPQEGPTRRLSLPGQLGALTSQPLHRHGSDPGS
structure (smiles),measurement,setting,value
CC(=O)Nc1c(C)c(C(OC(C)(C)C)C(=O)O)c(-c2ccc(C)c(C)c2)c(C)c1-c1ccc(C)c(C)c1 (stereo not drawn) [Compound I-6],remaining amount of compound in liver microsomes of human,[1],79%
same,inhibition ratio of IKr tail peak current,[2],3.5%
same,mutagenicity,[3],negative
